Like-named read-outs stand apart in the source and are kept apart here.
What was measured:
[1] = tested on: platelet aggregation; conditions: cited from earlier work; for time for platelet activity to return to baseline following discontinuance: after discontinuance
[2] = cited from earlier work; for time to peak plasma concentration: after oral administration; for mean elimination half-life: described in the drug label
[3] = tested on: animal models; conditions: cited from earlier work
[4] = Plasma concentration of ticagrelor by LC-MS/MS; format: in vivo; conditions: C57BI6, mouse, intravenous, t = 80 min, ticagrelor 1.2 mg/kg + 30 μg/kg*min
Method: The plasma concentration of ticagrelor was determined by means of a Liquid Chromatographic-Mass Spectrometric (LC-MS/MS) method.

[5] = tested on: C57BI6 mice; test: Mouse tail bleeding model (blood loss and bleeding time)
Method: (§5) C57BI6 mice were administered an intravenous bolus of AZD3366 or vehicle. In separate groups, mice were administered AZD3366 and ticagrelor or ticagrelor only as a bolus and continuous infusion of ticagrelor. The groups, doses and volumes of administration were as described in the following table:
(§6) Twenty min following dosing, bleeding was initiated by cutting 5 mm of the tip of the tail. The tail was rinsed with water and placed in a haemoglobin sensitive device. Light transmission through the blood and water mixture was recorded and converted to absorbance using the PharmLab software (V6.0, AstraZeneca R&D, Gothenburg, Sweden). Transmittance below 95% was defined as bleeding. Total blood loss, (area under the bleeding curve, t=20 min to t=80 min: cumulative blood loss vs time, absorbance*s, abs*s) and bleeding time (BT) were measured over 60 min from the start of tail cutting.

[6] = tested on: platelet aggregation; test: ADP-induced whole blood platelet aggregation (Multiplate impedance aggregometer) after in vivo dosing; parameters: species or system mouse; conditions: for PA (AU*min): blood at t = 80 min, ADP 6.5 μmol/L
Method: Immediately after the blood sampling, 175 μL whole blood was added to the Multiplate® (Roche Diagnostics GmbH, Mannheim, Germany) mini test cells and mixed with 175 μL 37° C. pre-heated saline (9 mg/mL, Fresenius Kabi AG, Bad Homburg, Germany).

[7] = tested on: pig animal model of myocardial infarction; test: Global and regional cardiac function assessed by CMR in pig model of myocardial infarction; format: in vivo
Method: (§1) Regular chow-fed Landrace pigs (n=20; weight≈40 kg) were randomly (Excel randomized function) distributed into four groups to receive: • I) Oral placebo-control (2 h prior Myocardial Infarction (MI) induction n=5) • II) A loading dose of ticagrelor (180 mg; n=5; p.o 2 h prior MI induction) • III) A loading dose of ticagrelor (180 mg; n=5; p.o 2 h prior MI induction and 1 mg/kg AZD3366 i.v. 10 min before reperfusion) • IV) A loading dose of ticagrelor (180 mg; n=5; p.o 2 h prior MI induction and 3 mg/kg AZD3366 i.v. 10 min before reperfusion)
(§2) Thereafter, pigs underwent temporary (90 minutes) balloon occlusion of the mid-left anterior descending coronary artery (experimental MI) and then reperfused, essentially as described in Vilahur et al. 2016. Throughout the following 42 days, the pigs received daily oral maintenance dosing of placebo (group I) or ticagrelor (90 mg/bid, groups II to IV) and serial Cardiac Magnetic Resonance (CMR) assessments were performed at day 3 (early remodeling phase) and day 42 (late remodeling phase) post-MI.
(§3) On the day of MI-induction animals received buprenorphine (0.03 mg/kg) and cefazoline (25 mg/kg) as prophylaxis for pain and wound infection, respectively, and then anaesthetized by administrating an intramuscular injection of ketamine (30 mg/kg), xylazine (2.2 mg/kg), and atropine (0.05 mg/kg). Once tranquilized, animals were endotracheally intubated and anesthesia was maintained by isoflurane inhalation (2%). Prior to starting the MI-induction procedure, an infusion of amiodarone (300 mg) and lidocaine (150 mg) in 1.000 mL of saline (250 mL/h) was initiated as prophylaxis for malignant ventricular arrhythmias through a line placed in the marginal ear vein and a bolus of heparin (100 U/kg) was administered to prevent clot formation in the catheters. […] Complete coronary ischemia (verified by angiography) was maintained for 90 minutes. At the end of the ischemic period, the balloon was completely deflated and animals were allowed to recover. Electrocardiogramand hemodynamic parameters were continuously recorded throughout the entire procedure and the echocardiographic system (Phillips iE33) equipped with a S5-1 sector array transducer was used prior- and post-MI induction to document the initial worsening of left ventricular ejection fraction (LVEF, M-mode analysis using the parasternal long-axis view; Vilahur et al. 2016).
(§4) CMR studies were conducted serially in all animals at Day 3 (early remodeling phase) and Day 42 (late remodeling phase) post-MI. The studies were performed on a 3.0T-CMR system (AchievaVR, Philips, Amsterdam, The Netherlands) and CMR image acquisition was carried out by a CMR specialized technician blinded in terms of treatment. For CMR studies, animals were anaesthetized with an intramuscular injection of a cocktail composed of ketamine, xylazine, and atropine and maintained by a continuous intravenous infusion of propofol to ensure mechanical ventilation. Once the animals were positioned in a head-first supine position with a flexible phased-array surface coil placed over the chest, ECG gating was used to acquire still images of the heart. The following dedicated CMR sequences were acquired in all cases: ‘cine’ Balanced Steady-State Free Precession (bSSFP) imaging sequence to assess wall motion (WM) and cardiac function; T2-weighted short-tau inversion recovery (T2w-STIR) sequence to assess myocardial edema; early gadolinium enhancement to study microvascular obstruction (no reflow phenomenon); and late gadolinium enhancement (LGE) to assess the amount and extent of myocardial necrosis. All the CMR studies followed the same scheme. First, scout images [T1-turbo field echo (TFE) sequence] were obtained to localize the true axes of the heart and define a field of view involving the whole heart. […]

[8] = tested on: pig animal model of myocardial infarction; test: Cardiac damage assessed by CMR in pig model of myocardial infarction; format: in vivo; conditions: ticagrelor 180 mg p.o. 2 h prior MI, then 90 mg/bid
Method: as §1, §2, §3, §4

[9] = tested on: adenosine diphosphatase activity; conditions: Moeckel et al. (2014); cited from earlier work
[10] = tested on: C57BI6 mice; conditions: mouse, in vivo, iv
Method: as §5, §6

[11] = in vivo; cited from earlier work
[12] = tested on: animal models of ischemic stroke; conditions: Sun et al., 2011; Tan et al., 2014; cited from earlier work
[13] = tested on: animal models; conditions: cited from earlier work; remark: listed apart in the source
[14] = ticagrelor-treated animals, p<0.001
[15] = 3 Days Post-MI, ticagrelor 180 mg p.o. 2 h prior MI, then 90 mg/bid
[16] = 42 Days Post-MI, ticagrelor 180 mg p.o. 2 h prior MI, then 90 mg/bid
[17] = BSL (baseline), ticagrelor group
[18] = preclinical models (Moekel et al. 2015)

For `CCCSc1nc(N[C@@H]2C[C@H]2c2ccc(F)c(F)c2)c2nnn([C@@H]3C[C@H](O)[C@@H](O)[C@H]3O)c2n1` [AR-C124910XX], the “potency of active metabolite relative to ticagrelor” value ([1]; in vivo) is given as “approximately equipotent”, the “time to peak plasma concentration” value [2] is given as ~2.5 h and the mean elimination half-life [2] is given as 9 h.

In the case of `CSCCNc1nc(SCCC(F)(F)F)nc2c1ncn2[C@@H]1O[C@H](COP(=O)(O)OP(=O)(O)C(Cl)(Cl)P(=O)(O)O)[C@@H](O)[C@H]1O` [Cangrelor], the “time for platelet responses to return to baseline” value ([1]; after discontinuation) is given as ≤ 15 min, the “time to maximal platelet inhibition” value ([1]; in vivo) is given as ≤ 15 min and the “time to steady state plasma levels and platelet aggregation inhibition” value ([2]; from onset of infusion) is given as ≤ 30 min. The elimination half-life ([2]; in vivo) was 3 to 6 min and the plasma half-life ([2]; in vivo) was “less than 9 min”.

In the case of `COC(=O)[C@H](c1ccccc1Cl)N1CCc2sccc2C1` [Clopidogrel], the “cardioprotection / protective efficacy” value ([3]; FIG. 6 of Moeckel et al. (2014)) is listed as “not cardioprotective”, the “time for platelet activity to return to baseline following discontinuance” value [1] is listed as “about 5 days” and the “time at which dose-dependent platelet aggregation inhibition is observed” value ([1]; following oral administration of a single dose) is listed as “around 2 hours”. For the same molecule, the elimination half-life ([2]; following a single dose of 75 mg) was “approximately 6 hours” and the “time to peak plasma concentrations of the active metabolite” value ([2]; following an oral dose, analyte: active metabolite) was 30 to 60 min.

For `CC(=O)Oc1cc2c(s1)CCN(C(C(=O)C1CC1)c1ccccc1F)C2` (stereo not shown) [Prasugrel], the elimination half-life ([2]; stated after the active metabolite of prasugrel) is listed as “about 7.4 hours”.

In the case of `CCCSc1nc(N[C@@H]2C[C@H]2c2ccc(F)c(F)c2)c2nnn([C@@H]3C[C@H](OCCO)[C@@H](O)[C@H]3O)c2n1` [Ticagrelor, (1S,2S,3R,5S)-3-[7-[[(1R,2S)-2-(3,4-difluorophenyl)cyclopropyl]amino]-5-(propylthio)-3H-1,2,3-triazolo[4,5-d]pyrimidin-3-yl]-5-(2-hydroxyethoxy)-1,2-cyclopentanediol], the concentration at 80 min [4] is given as 8 ± 0.2 µM, the “time maximum inhibition of platelet aggregation is maintained” value ([1]; after a dose) is given as “more than 8 hours” and the “time for platelet activity to return to baseline following discontinuance” value [1] is given as 5 days. The “BT (s) Median” value ([5]; bleeding time over 60 min, ticagrelor bolus 1.2 mg/kg + infusion 30 μg/kg*min) was 3433a, d s, the “Blood loss (abs*s) Median” value ([5]; tail transection at t = 20 min, recorded 60 min, ticagrelor bolus 1.2 mg/kg + infusion 30 μg/kg*min) was 1157a, b, c abs*s and the “BT increase as compared to vehicle” value [5, 14] was 5.2 fold. For the same molecule, the “Blood loss increase as compared to vehicle” value [5, 14] was 7.2 fold, the “PA (AU*min)” value ([6]; ticagrelor 1.2 mg/kg + 30 μg/kg*min) was 2 ± 2 AU*min and the LVEF % [7, 15] was 50.3 ± 2.9%. For the same molecule, the “Wall motion (mm)” value [7, 15] was 1.88 mm, the LVEF % [7, 16] was 47.0 ± 4.4% and the “Wall motion (mm)” value [7, 16] was 2.55 mm. The LVEF % [7, 17] was 53.7 ± 2.8%, the “Wall motion (mm)” value [7, 17] was 2.66 mm and the “time to peak plasma concentration” value [2] was “approximately 1.5 hours”. The mean elimination half-life [2] was 7 h, the “Edema % of LV mass” value ([8]; 3 Days Post-MI) was 13.1 ± 0.9 % and the “Edema (gr)” value ([8]; 3 Days Post-MI) was 10.5 ± 0.8 gr. For the same molecule, the “LV Mass” value ([8]; 3 Days Post-MI) was 81.3 ± 7.4, the “Necrosis % of LV mass” value ([8]; 3 Days Post-MI) was 8.2 ± 1.2 % and the “Necrosis (gr)” value ([8]; 3 Days Post-MI) was 6.6 ± 1.0 gr. For the same molecule, the “LV Mass” value ([8]; 42 Days Post-MI) was 108.6 ± 6.9, the “Necrosis % of LV mass” value ([8]; 42 Days Post-MI) was 4.3 ± 0.8 % and the “Necrosis (gr)” value ([8]; 42 Days Post-MI) was 4.7 ± 1.0 gr.

For `Clc1ccccc1CN1CCc2sccc2C1` [ticlopidine], the “time to peak plasma concentration” value [2] is listed as “around 2 hours”.

B1: AZD3366: recombinant optimised form of soluble CD39L3 apyrase (R67G, T69R, N-terminal EVLP), amino acid sequence SEQ ID NO: 2 (protein)
chain: EVLPPGLKYGIVLDAGSSGTRVYVYQWPAEKENNTGVVSQTFKCSVKGSGISSYGNNPQDVPRAFEECMQKVKGQVPSHLHGSTPIHLGATAGMRLLRLQNETAANEVLESIQSYFKSQPFDFRGAQIISGQEEGVYGWITANYLMGNFLEKNLWHMWVHPHGVETTGALDLGGASTQISFVAGEKMDLNTSDIMQVSLYGYVYTLYTHSFQCYGRNEAEKKFLAMLLQNSPTKNHLTNPCYPRDYSISFTMGHVFDSLCTVDQRPESYNPNDVITFEGTGDPSLCKEKVASIFDFKACHDQETCSFDGVYQPKIKGPFVAFAGFYYTASALNLSGSFSLDTFNSSTWNFCSQNWSQLPLLLPKFDEVYARSYCFSANYIYHLFVNGYKFTEETWPQIHFEKEVGNSSIAWSLGYMLSLTNQIPAESPLIRLPIEPPV
modifications: N-terminal EVLP
For B1, the bleeding time ([3]; Moeckel et al. (2014)) is listed as “without an increase in bleeding time”, the infarction size ([3]; Moeckel et al. (2014)) is listed as “decreased infarction size” and the “adenosine diphosphatase activity compared with native apyrase” value [9] is listed as “four times higher”. For the same molecule, the “BT (s) Median” value ([10]; 1 mg/kg) was 589 s, the “Blood loss (abs*s) Median” value ([10]; 1 mg/kg) was 157 abs*s and the “BT (s) Median” value ([10]; 3 mg/kg) was 1438 s. For the same molecule, the “Blood loss (abs*s) Median” value ([10]; 3 mg/kg) was 342e abs*s, the “platelet aggregation (PA) inhibition” value ([6]; AZD3366 1 and 3 mg/kg) was “complete platelet aggregation (PA) inhibition” and the “PA (AU*min)” value ([6]; AZD3366 1.0 mg/kg) was 2 ± 2 AU*min. The “PA (AU*min)” value ([6]; AZD3366 3.0 mg/kg) was 0 ± 0 AU*min, the “plasma half-life compared with native apyrase” value [11] was 50 times and the “reperfusion, re-occlusion and intracerebral bleeding” value [12] was “enhance reperfusion, reduce re-occlusion and reduce intracerebral bleeding”. The “time until active after administration” value ([13]; animal models) was ≤ 5 min, the “time until return to baseline” value ([13]; animal models) was 3 to 4 weeks and the “time activity is maintained” value [13, 18] was “more than 24 hours”. The “time to high levels of activity after administration” value [13, 18] was “within minutes”.

Source: patent US12668785B2, “Combination treatment by administering a recombinant apyrase protein in conjunction with a P2Y12 inhibitor” (ASTRAZENECA AB, priority 2020, dated 2026)
